Measured values taken from patent US9079900B2, “Methods of synthesis and purification of heteroaryl compounds” (SIGNAL PHARMACEUTICALS, LLC, priority 2009, dated 2015).

Structure (SMILES)	melting point [°C]
CC(C)(O)c1ccc(-c2cnc3c(n2)N(CCN2CCOCC2)CC(=O)N3)cn1 [Example 5, 6-(6-(2-Hydroxypropan-2-yl)pyridin-3-yl)-4-(2-morpholinoethyl)-3,4-dihydropyrazino[2,3-b]pyrazin-2(1H)-one]	239 to 241
O=C1CNc2ncc(-c3cnc4[nH]ccc4c3)nc2N1CCC1CCOCC1 [Example 15, 7-(1H-Pyrrolo[2,3-b]pyridin-5-yl)-1-(2-(tetrahydro-2h-pyran-4-yl)ethyl)-3,4-dihydropyrazino[2,3-b]pyrazin-2(1H)-one]	255 to 258
